Results as given in US4250259A, “Microbiological production of ketones from C3 -C6 secondary alcohols” (priority 1979, dated 1981).
Read-outs that look alike come from different tables or passages of the source.

Tests used:
[1] = tested on: Kloeckera sp. Strain A2 (NRRLY-11,420); experiment: sec-alcohols to ketones by cell suspensions of yeasts; type: cell-based
[2] = tested on: cell extracts (NAD+-dependent secondary alcohol dehydrogenase); experiment: sec-alcohols to methyl ketones by cell extracts of yeasts, gas chromatography; type: biochemical, Kloeckera sp. strain A2 NRRL-Y-11,420; details: grown on methanol
[3] = tested on: purified secondary alcohol dehydrogenase; experiment: substrate specificity, electron acceptor and stoichiometry of purified yeast SADH; details: for oxidation by the purified yeast secondary alcohol dehydrogenase: examined spectrophotometrically; for Product Formed: stoichiometry, Acetone from Isopropanol, 2-Butanone from 2-Butanol, gas chromatography
[4] = tested on: secondary alcohol dehydrogenase (SADH), cell-free soluble extract; experiment: oxidation of sec-alcohols by cell-free soluble extracts; type: biochemical, Pseudomonas sp. CRL 75 (ATCC 21,439); details: for Oxidation Rate, sec-alcohol to corresponding ketone: soluble crude extract, grown on methanol
Experimental: (§1) To prepare the cell-free secondary alcohol dehydrogenase (SADH) system, the washed cells were disrupted with a Wave Energy Ultrasonic Oscillator, Model W201 (Wave Energy System, Inc., Newtown, Pa.) and centrifuged at 20,000×g. for 30 minutes. […] The enzyme activity was measured with a fluorescence spectrophotometer (Perkin Elmer, Model MPF 44A) by following the formation of reduced NAD (EX 340 nm, Em 460 nm). The formation of reduced NAD was also followed with an absorption spectrophotometer at 340 nm. The assay system (3 ml.) contained: potassium phosphate buffer pH 7.0; 150 μmol.; NAD 1 μmol.; a given amount of enzyme preparation; and secondary alcohol 10 μmol. The reaction was started by the addition of substrate. One unit of enzyme activity represents the reduction of one μmole NAD per minute. Protein concentrations were determined by the Lowry method (J. Biol. Chem., 193: 255-275 (1951)).
(§2) The experimental procedure for the tests reported in Table VIII were as follows: 1 mg protein of crude extract was added into a 0.5 ml. 0.05 M phosphate buffer (pH 7.0) in a 10-ml. vial. […] The reaction mixture was incubated at 30° C. on a water bath. A 3 μl sample was removed with a syringe at 15 min. of incubation and was assayed with g.l.c. Catalytic activity was also assayed by fluorescence spectrophotometry.

[5] = tested on: Candida utilis ATCC 26387; experiment: sec-alcohols to ketones by cell suspensions of yeasts; type: cell-based
[6] = tested on: Methylomonas albus BG8 (NRRL B-11,200); experiment: sec-alcohols to ketones by resting cell suspensions; type: cell-based
Experimental: (§3) The pH of the nutrient medium was adjusted to 7.0 by the addition of acid or base and 50 ml. samples of the nutrient medium were charged into a plurality of 300 ml. shaker flasks. The shaker flasks were inoculated with an inoculating loop of cells from an agar plate containing homogeneous colonies of the microorganisms on the plate (the purity of the isolates was confirmed by microscopic examination). The isolates had been maintained on methanol (0.4% V/V) agar plates or on agar plates under an atmosphere of methane and air having a 1:1 V/V gas ratio which had been transferred every two weeks. For growth on methanol, the medium was supplemented with 0.4% methanol. For growth on methane, the gaseous phase of the inoculated flasks was replaced with a gas mixture comprised of methane and air having a ratio of 1:1 on a V/V basis. The inoculated flasks were sealed air-tight and were incubated on a rotary shaker of orbital radius 2.5 cm. at 250 rpm and at 30° C. for two days until turbidity in the medium had developed. The cells were harvested by centrifugation at 10,000×g. at 4° C. for 30 minutes. The cell pellet was washed twice with a 0.05 M phosphate buffer at a pH of 7.0 (containing 0.02 M MgCl2). The washed cells were then suspended in a 0.05 M phosphate buffer at pH 7.0.
(§4) A 0.5 ml. sample of each washed cell suspension (2 mg. cells) was put into 10 ml. vials at 4° C. which were sealed with a rubber cap. The gaseous phase of the vials was removed with vacuum and then was replaced with a gas mixture of the substrate reactant (i.e., alkane or secondary alcohol) and oxygen at a 1:1 V/V ratio. (In the case of a liquid substrate, i.e., secondary alcohol, 10 μl of the substrate was put in the 10 ml. vials). […] Samples of product (1-3 μl) were withdrawn periodically with a microsyringe and the products were analyzed by gas chromatography (ionization flame detector column).
(§5) The procedure in Example 1 was repeated wherein a plurality of the methane-utilizing methylotrophic microorganisms were each grown aerobically in a nutrient medium containing methane as the alcohol dehydrogenase enzyme inducer and as the major carbon and energy source for growth. The cells were harvested and washed as described in Example 1. The resting microbial cells of the induced methane-grown methane-utilizing methylotrophic microorganisms were then contacted with C3 -C6 secondary alcohols in a buffered solution by the procedure of Example 1.
(§6) In this example, the procedure in Example 1 was repeated except that a plurality of methane-utilizing methylotrophic microorganisms were each aerobically grown in a methanol-containing nutrient medium instead of a methane-containing medium. The nutrients in the medium were the same as indicated in Example 1 except that 0.4% V/V methanol was used as the alcohol dehydrogenase inducer and major source of carbon and energy for growth. Following growth, the cells were harvested and washed as described in Example 1.
(§7) The resting cells of the induced methanol-grown methylotrophic microorganisms were then contacted with secondary alcohols in a buffered solution by the procedure described in Example 1.

[7] = tested on: Methylosinus sporium 5 (NRRL B-11,197); experiment: as above; type: cell-based
Experimental: as §3, §4, §5, §6, §7

[8] = tested on: secondary alcohol dehydrogenase (SADH), cell-free soluble extract; details: Growth Substrate CH4
Experimental: as §1, §2

[9] = tested on: secondary alcohol dehydrogenase (SADH), cell-free soluble extract
Experimental: as §1, §2

[10] = tested on: secondary alcohol dehydrogenase, crude extracts; details: 2-butanol as a substrate; extracts of methanol-grown yeast
Experimental: Cell suspensions (2 g. wet weight) of packed cells in 10 ml. of 50 mM sodium phosphate buffer, pH 7.0 at 4° C. were disrupted by sonication with a Megason ultrasonic disintegration. The sonicated cell suspensions were centrifuged for 15 minutes at 30,000×g. The supernantant liquid was termed the crude extracts.
Secondary alcohol dehydrogenase activity was measured spectrophotometrically at 340 nm with a NAD^+ as an electron acceptor. The reaction mixture, in a total 3.0 ml., contained 50 mM phosphate buffer, pH 8.0, 5 μmoles NAD^+, crude extracts, and substrate. The reactions were started by addition of 100 μl of 0.1 M substrate and the rate of NAD^+ reduction was measured. Protein concentration was determined by the method of Lowry et al.
Oxidation of secondary alcohols were also estimated spectrophotometrically by measuring the reduction of NAD^+. […] NRRL Y-11,328 Torulopsis sp.

Row | Compound | Conversion Rate, sec-alcohol to corresponding ketone ([1]; Growth Substrate Ethanol) | Conversion Rate, sec-alcohol to corresponding ketone ([1]; Growth Substrate Methanol) | Conversion Rate, sec-alcohol to corresponding ketone ([1]; Growth Substrate Methylamine) | Conversion Rate, sec-alcohol to corresponding ketone ([1]; Growth Substrate Methylformate) | Conversion Rate, sec-alcohol to corresponding ketone ([1]; Growth Substrate Propylamine) | Conversion Rate, sec-alcohol to methyl ketone [2] [μmoles/hr/mg Protein] | oxidation by the purified yeast secondary alcohol dehydrogenase [3] | Oxidation Rate, sec-alcohol to corresponding ketone [4] [nmole/min/mg protein] | Conversion Rate, sec-alcohol to corresponding ketone ([5]; Growth Substrate Ethanol) | Conversion Rate, sec-alcohol to corresponding ketone ([5]; Growth Substrate Methanol) | Conversion Rate, sec-alcohol to corresponding ketone ([5]; Growth Substrate Methylamine) | Conversion Rate, sec-alcohol to corresponding ketone ([5]; Growth Substrate Methylformate) | Conversion Rate, sec-alcohol to corresponding ketone ([5]; Growth Substrate Propylamine) | Conversion Rates, sec-alcohol to corresponding ketone ([6]; cells grown on methane) [μmoles/hr/mg protein] | Conversion Rates, sec-alcohol to corresponding ketone ([6]; cells grown on methanol) [μn moles/hr/mg protein] | Conversion Rates, sec-alcohol to corresponding ketone ([7]; cells grown on methane) [μmoles/hr/mg protein] | Conversion Rates, sec-alcohol to corresponding ketone ([7]; cells grown on methanol) [μn moles/hr/mg protein] | Product Formed [3] [µmol] | other results
1 | CCCC(C)O (stereo not shown) [2-Pentanol, 2-pentanol] | 1.0 μmoles/hr/mg of protein | 1.2 μmoles/hr/mg of protein | 1.0 μmoles/hr/mg of protein | 1.2 μmoles/hr/mg of protein | 0.92 μmoles/hr/mg of protein | 1.2 | catalyzed the oxidation | 1.2 | 1.0 μmoles/hr/mg of protein | 1.5 μmoles/hr/mg of protein | 1.2 μmoles/hr/mg of protein | 1.3 μmoles/hr/mg of protein | 0.9 μmoles/hr/mg of protein |  |  |  |  |  | 
2 | CCCCC(C)O (stereo not shown) [2-Hexanol, 2-hexanol] | 0.12 μmoles/hr/mg of protein | 0.25 μmoles/hr/mg of protein | 0.10 μmoles/hr/mg of protein | 0.28 μmoles/hr/mg of protein | 0.11 μmoles/hr/mg of protein | 0.25 | catalyzed the oxidation | 0 | 0.72 μmoles/hr/mg of protein | 0.8 μmoles/hr/mg of protein | 0.61 μmoles/hr/mg of protein | 0.75 μmoles/hr/mg of protein | 0.52 μmoles/hr/mg of protein |  |  |  |  |  | 
3 | CCC(C)O (stereo not shown) [2-Butanol, 2-butanol] | 5.7 μmoles/hr/mg of protein | 5.9 μmoles/hr/mg of protein | 5.4 μmoles/hr/mg of protein | 5.9 μmoles/hr/mg of protein | 4.2 μmoles/hr/mg of protein | 5.9 | catalyzed the oxidation | 25.0 | 5.2 μmoles/hr/mg of protein | 6.8 μmoles/hr/mg of protein | 5.0 μmoles/hr/mg of protein | 6.2 μmoles/hr/mg of protein | 4.2 μmoles/hr/mg of protein | 3.5 | 3.0 | 3.0 | 3.5 | 5.7 | Conversion Rate, 2-butanol to 2-butanone [8]: 1.4 nmoles/min/mg protein; Conversion Rate, 2-butanol to 2-butanone ([4]; Growth Substrate CH3 OH): 25.0 nmoles/min/mg protein; Conversion Rate, 2-butanol to 2-butanone ([9]; Growth Substrate CH3 OH): 2.0 nmoles/min/mg protein; Conversion Rate, 2-butanol to 2-butanone ([9]; Growth Substrate CH4): 1.5 nmoles/min/mg protein; specific activities [10]: 85 nmoles NAD^+ reduced per min. per mg. protein
4 | CC(C)O [2-Propanol, 2-propanol] | 4.5 μmoles/hr/mg of protein | 4.8 μmoles/hr/mg of protein | 4.0 μmoles/hr/mg of protein | 4.9 μmoles/hr/mg of protein | 4.0 μmoles/hr/mg of protein | 4.8 | catalyzed the oxidation | 21.2 | 5.2 μmoles/hr/mg of protein | 6.2 μmoles/hr/mg of protein | 5.0 μmoles/hr/mg of protein | 5.6 μmoles/hr/mg of protein | 4.2 μmoles/hr/mg of protein | 1.3 | 1.5 | 0.30 | 0.45 | 5.5 | 
